From patent publication US20180251425A1, “2,3,5 TRISUBSTITUTED PYRROLE DERIVATIVES AS TOPOISOMERASE INHIBITORS AND THERAPEUTIC USES THEREOF” (UNIVERSITY OF MYSORE, priority 2015, published 2018)

Tests used:
Type in all cases: cell-based
Molt4 = experiment: Cytotoxicity (MTT / trypan blue) in Molt4 cells; settings: Homo sapiens, MOLT-4, read-out: Cytotoxicity IC 50 in μM (Cell lines) Molt4
Procedure: (§1) Human cancer cell lines, K562, MCF7, HeLa and HEK 293T were purchased from National Centre for Cell Science, Pune, India. Cells were grown in RPMI 1640/MEM/DMEM supplemented with 10% heat-inactivated fetal bovine serum (FBS), 100 U/mL of Penicillin, and 100 μg of streptomycin/mL and incubated at 37° C. in a humidified atmosphere containing 5% CO2.
(§2) Nalm6, Molt4 and Reh cells were provided by Dr. Sathees C. Raghavan, Department of Biochemistry, IISc, Bangalore. The cells were grown under the similar culture conditions as mentioned above.
(§3) The human T cell leukemia cell line Molt4, Human acute lymphoblastic leukemia (ALL) cell line Nalm6, Human acute myelocytic leukemia (AML) cell line Reh, chronic myelogenous leukemia (CML) cell line K562, Human breast adenocarcinoma cell lines like MCF7 and human kidney cell line HEK 293T (Human embryonic kidney cell line) were selected for the purpose of preliminary anticancer screening of newly synthesized compounds (ASR1 to ASR15). To check the cytotoxicity, trypan blue dye exclusion assays, MTT assay were employed as described earlier Further, Cell cycle analysis, Mitochondrial membrane potential, Annexin-V FITC staining assay were also performed in order to understand the mode of cell death after treatment with ASR6. Further, ASR6 was also tested for its ability to inhibit topoisomerase I and II activity in vitro.
(§4) Cytotoxic effect of the newly synthesized compounds against leukemic cells was assessed using 3-(4, 5-dimethyl-2-yl02, 5-diphenyl tetrazolium bromide (MTT) assay. After exposure of compound at different concentration (0.01, 0.1, 0.5, 1, 10, 50 and 100 μM) cells were harvested and transferred into 96 well plate, MTT (5 mg/ml) was added and incubate at 37° C. for 4 h and formazan crystals were dissolved by adding solubilizing agent (10% SDS and 50% dimethyl formamide) for 1 h, finally plate was read at 570 nm (Bio-Rad, USA). Results were represented as inhibition of percentage of cell proliferation in bar diagram (n=3) (FIGS. 1 A, C, E and G).
(§5) To determine the growth inhibitory activity of the drug, 0.5×10^5 cell/ml were plated in 24 well (Biofil, USA.) in 1 ml of complete medium and treated with various concentration of the compound to test, cells were stained with 0.4% trypan blue and counted on a hemocytometer after treatment with compounds at 48 and 72 h time point. Results were represented as number of viable cells/ml in bar diagram (FIGS. 1 B, D, F, and H) (n=3).

Nalm6 = experiment: Cytotoxicity (MTT / trypan blue) in Nalm6 cells; settings: Homo sapiens, NALM-6, read-out: Cytotoxicity IC 50 in μM (Cell lines) Nalm6
Procedure: as §1, §2, §3, §4, §5

Reh = experiment: Cytotoxicity (MTT / trypan blue) in Reh cells; settings: Homo sapiens, read-out: Cytotoxicity IC 50 in μM (Cell lines) Reh
Procedure: as §1, §2, §3, §4, §5

K562 = experiment: Cytotoxicity (MTT / trypan blue) in K562 cells; settings: Homo sapiens, read-out: Cytotoxicity IC 50 in μM (Cell lines) K562
Procedure: as §1, §3, §4, §5

MCF7 = experiment: Cytotoxicity in MCF7 cells; settings: Homo sapiens, read-out: Cytotoxicity IC 50 in μM (Cell lines) MCF7
Procedure: as §1, §3, §4, §5

HeLa = experiment: Cytotoxicity in HeLa cells; settings: Homo sapiens, read-out: Cytotoxicity IC 50 in μM (Cell lines) HeLa
Procedure: as §1
as §4, with “G). […]” for “G).”

Row | Compound | IC50 (Molt4) [µM] | IC50 (Nalm6) [µM] | IC50 (Reh) [µM] | IC50 (K562) [µM] | IC50 (MCF7) [µM] | IC50 (HeLa) [µM]
1 | COC(=O)c1[nH]c(-c2ccc(C)cc2)cc1-c1cccc([N+](=O)[O-])c1 [ASR13, Methyl 3-(3-nitrophenyl)-5-p-tolyl-1H-pyrrole-2-carboxylate] | 8.84 | 11 | > 100 | > 100 | > 100 | > 100
2 | CCOC(=O)c1[nH]c(-c2ccc(Cl)cc2)cc1-c1ccc2ccccc2c1 [ASR7, Ethyl 5-(4-chlorophenyl)-3-(naphthalen-2-yl)-1H-pyrrole-2-carboxylate] | 30.8 | > 50 | > 100 | > 100 | > 100 | > 100
3 | CCOC(=O)c1[nH]c(-c2cc(OC)c(OC)c(OC)c2)cc1-c1cccs1 [ASR14, Ethyl 3-(thiophen-2-yl)-5-(3,4,5-trimethoxyphenyl)-1H-pyrrole-2-carboxylate] | 15.2 | 10.5 | > 100 | > 100 | > 100 | > 100
4 | CCOC(=O)c1[nH]c(-c2ccc(C)cc2)cc1-c1cccc([N+](=O)[O-])c1 [ASR4, Ethyl 3-(3-nitrophenyl)-5-p-tolyl-1H-pyrrole-2-carboxylate] | > 50 | > 50 | > 100 | > 100 | > 100 | > 100
5 | CCOC(=O)c1[nH]c(-c2cccc(OC)c2)cc1-c1ccncc1 [ASR15, Ethyl 5-(3-methoxyphenyl)-3-(pyridin-4-yl)-1H-pyrrole-2-carboxylate] | 12.9 | 5.4 | > 100 | > 100 | > 100 | > 100
6 | CCOC(=O)c1[nH]c(-c2ccc(OC)c(OC)c2)cc1-c1ccncc1 [ASR12, Ethyl 5-(3,4-dimethoxyphenyl)-3-(pyridin-4-yl)-1H-pyrrole-2-carboxylate] | 26.1 | 14.3 | > 100 | > 100 | > 100 | > 100
7 | CCOC(=O)c1[nH]c(-c2ccc(C)cc2)cc1-c1ccc(C#N)cc1 [ASR5, Ethyl 3-(4-cyanophenyl)-5-p-tolyl-1H-pyrrole-2-carboxylate] | > 50 | > 50 | > 100 | > 100 | > 100 | > 100
8 | CCOC(=O)c1[nH]c(-c2ccc(OC)c(OC)c2)cc1-c1ccc(C(F)(F)F)cc1 [ASR10, Ethyl 5-(3,4-dimethoxyphenyl)-3-(4-(trifluoromethyl)phenyl)-1H-pyrrole-2-carboxylate] | 7.96 | 20 | > 100 | > 100 | > 100 | > 100
9 | CCOC(=O)c1[nH]c(-c2ccccc2)cc1-c1ccccc1 [ASR1, Ethyl 3,5-diphenyl-1H-pyrrole-2-carboxylate] | > 50 | > 50 | > 100 | > 100 | > 100 | > 100
10 | COC(=O)c1[nH]c(-c2cccc(OC)c2)cc1-c1ccc(C(F)(F)F)cc1 [ASR11, Methyl 5-(3-methoxyphenyl)-3-(4-(trifluoromethyl)phenyl)-1H-pyrrole-2-carboxylate] | 17 | 9.53 | > 100 | > 100 | > 100 | > 100
11 | CCOC(=O)c1[nH]c(-c2ccc(OC)cc2)cc1-c1cccc(C)c1 [ASR2, Ethyl 5-(4-methoxyphenyl)-3-m-tolyl-1H-pyrrole-2-carboxylate] | > 50 | > 50 | > 100 | > 100 | > 100 | > 100
12 | CCOC(=O)c1[nH]c(-c2ccc(OC)cc2)cc1-c1ccco1 [ASR3, Ethyl 3-(furan-2-yl)-5-(4-methoxyphenyl)-1H-pyrrole-2-carboxylate] | > 50 | > 50 | > 100 | > 100 | > 100 | > 100
13 | CCOC(=O)c1[nH]c(-c2cccs2)cc1-c1ccc(Br)cc1 [ASR9, Ethyl 3-(4-bromophenyl)-5-(thiophen-2-yl)-1H-pyrrole-2-carboxylate] | 50 | > 50 | > 100 | > 100 | > 100 | > 100
14 | CCOC(=O)c1[nH]c(-c2cccs2)cc1-c1cccs1 [ASR8, Ethyl 3,5-di(thiophen-2-yl)-1H-pyrrole-2-carboxylate] | 35.3 | > 50 | > 100 | > 100 | > 100 | > 100
